The text below walks through data of patent US20050239733A1, “Sequence requirements for inhibitory oligonucleotides” (Coley Pharmaceutical GmbH, priority 2003, published 2005).

For one series, the system named is human PBMC. Description: Inhibition of CpG ODN 2395-induced IFN-α secretion by human PBMC. The format is cell-based. Particulars: FIG. 9; 0.5 μM CpG ODN 2395, increasing ODN, 24 h. The method, then:
In this set of experiments human PBMC were isolated from human blood and incubated in the presence of 0.5 μM CpG ODN 2395 ([…]; SEQ ID NO:30) and increasing concentrations of inhibitory ODN. CpG ODN 2395 induces high amounts of IFN-α in human PBMC through TLR9-mediated signaling. The secreted amount of IFN-α induced by CpG ODN 2395 after 24 h was set to 100%.

A further series has as its target T1, human TLR8 (Homo sapiens, UniProt Q9NR97).
T1 construct: expressed in transfected cells
T1 sequence (Q9NR97 27-1041): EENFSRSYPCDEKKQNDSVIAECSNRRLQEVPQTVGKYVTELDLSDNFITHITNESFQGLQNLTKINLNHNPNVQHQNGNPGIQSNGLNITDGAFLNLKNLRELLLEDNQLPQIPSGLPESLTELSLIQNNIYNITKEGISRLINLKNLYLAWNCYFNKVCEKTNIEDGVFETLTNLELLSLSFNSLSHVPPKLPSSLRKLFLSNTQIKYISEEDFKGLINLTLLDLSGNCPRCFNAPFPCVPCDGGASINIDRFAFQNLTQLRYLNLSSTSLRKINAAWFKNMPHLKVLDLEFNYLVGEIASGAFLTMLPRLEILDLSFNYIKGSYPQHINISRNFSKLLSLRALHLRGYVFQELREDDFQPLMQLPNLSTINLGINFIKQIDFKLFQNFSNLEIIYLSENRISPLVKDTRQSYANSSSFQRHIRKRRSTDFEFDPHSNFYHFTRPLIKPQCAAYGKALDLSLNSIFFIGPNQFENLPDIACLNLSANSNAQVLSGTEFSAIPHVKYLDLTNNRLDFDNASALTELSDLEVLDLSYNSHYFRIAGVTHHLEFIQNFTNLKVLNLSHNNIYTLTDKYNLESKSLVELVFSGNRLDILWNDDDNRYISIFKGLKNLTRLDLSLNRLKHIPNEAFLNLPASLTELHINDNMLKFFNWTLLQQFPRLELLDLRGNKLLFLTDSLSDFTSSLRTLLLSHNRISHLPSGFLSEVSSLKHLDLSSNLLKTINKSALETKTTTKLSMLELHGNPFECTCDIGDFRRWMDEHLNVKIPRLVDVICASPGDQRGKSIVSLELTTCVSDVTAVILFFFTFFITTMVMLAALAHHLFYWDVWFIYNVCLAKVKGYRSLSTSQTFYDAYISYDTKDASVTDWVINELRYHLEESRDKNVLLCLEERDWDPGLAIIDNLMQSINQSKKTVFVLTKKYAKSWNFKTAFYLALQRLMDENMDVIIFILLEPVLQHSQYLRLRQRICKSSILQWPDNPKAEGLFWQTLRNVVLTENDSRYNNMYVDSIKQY
Description: Inhibition of R-848-mediated NF-κB-luciferase activation in hTLR8-LUC-293 cells. The class given is cell-based. Particulars: general statement 'found according to the present invention'; conditions not given. As for the experimental part: The previous examples describe the ability of certain inhibitory ODN to inhibit activation of signal transduction mediated by human Toll-like receptor 9 (hTLR9). […] The assay system involved stimulating hTLR8-LUC-293 cells with the TLR8 ligand, R-848 (Resiquimod; Jurk M et al. (2002) Nat Immunol 3:499) in the presence and absence of ODN and comparing the induction of luciferase activity in the absence of ODN to luciferase activity in the presence of ODN.
Cells were assayed for luciferase activity 16 h later. Results were calculated as fold induction above medium background.
Luciferase activity was assayed after 16 h.
hTLR8-LUC-293 cells were incubated with 50 μM R-848 in the presence of increasing concentrations of the following ODN: ODN 2088, D13GT (whererin D is dSpacer), GTN13, N6GTN7, random 15-mer N15, N13GT, and the dinucleotide GT. Luciferase activity was assayed after 16 h. Luciferase activity of R-848 without any ODN was set to 100% (without correction for medium background, i.e. background activity of medium remained at approx. 17%).
Luciferase activity was assayed after 16 h. Luciferase activity of R-848 without any ODN was set to 100% (without correction for medium background, i.e., background activity of medium remained at approx. 17%).
In yet a further set of experiments hTLR8-LUC-293 cells were incubated with 50 μM R-848 in the presence of increasing amounts of different dinucleotides (GT, ODN 603; TG, ODN 688; GG, ODN 689; GU, ODN 690; UG, ODN 691; AT, ODN 692; and TT, ODN 693). Luciferase was assayed after 16 h. Luciferase activity of R-848 without any ODN was set to 100% and remaining R-848-mediated NF-κB activation in the presence of dinucleotides or ODN 2088 was calculated. Medium background was 17% in this set of experiments.
hTLR-LUC-293 cells (expressing the respective humanTLR7, TLR8, or TLR9) were incubated with constant amounts of TLR-agonist (for hTLR7: 2 μM R-848, for hTLR8: 50 μM R-848, and for hTLR9: 0.156 μM CpG ODN 2006) and increasing amounts of TLR-antagonist. […] To compare data for different TLRs, percent remaining activity of agonist was plotted against the log of molar ratio of antagonist to agonist (e.g., for hTLR8: 50 μM R-848 and 5 μM ODN, the plotted ratio is 10^−1). Used ODN concentrations were: for hTLR7 and hTLR8, 5 μM, 0.5 μM, 0.05 μM, and 0.005 μM, and for hTLR9, 2.5 μM, 0.156 μM, 0.0098 μM and 0.00061 μM.

A further series deals with T2, human TLR9 (Homo sapiens, UniProt Q9NR96).
T2 sequence (Q9NR96 26-1032): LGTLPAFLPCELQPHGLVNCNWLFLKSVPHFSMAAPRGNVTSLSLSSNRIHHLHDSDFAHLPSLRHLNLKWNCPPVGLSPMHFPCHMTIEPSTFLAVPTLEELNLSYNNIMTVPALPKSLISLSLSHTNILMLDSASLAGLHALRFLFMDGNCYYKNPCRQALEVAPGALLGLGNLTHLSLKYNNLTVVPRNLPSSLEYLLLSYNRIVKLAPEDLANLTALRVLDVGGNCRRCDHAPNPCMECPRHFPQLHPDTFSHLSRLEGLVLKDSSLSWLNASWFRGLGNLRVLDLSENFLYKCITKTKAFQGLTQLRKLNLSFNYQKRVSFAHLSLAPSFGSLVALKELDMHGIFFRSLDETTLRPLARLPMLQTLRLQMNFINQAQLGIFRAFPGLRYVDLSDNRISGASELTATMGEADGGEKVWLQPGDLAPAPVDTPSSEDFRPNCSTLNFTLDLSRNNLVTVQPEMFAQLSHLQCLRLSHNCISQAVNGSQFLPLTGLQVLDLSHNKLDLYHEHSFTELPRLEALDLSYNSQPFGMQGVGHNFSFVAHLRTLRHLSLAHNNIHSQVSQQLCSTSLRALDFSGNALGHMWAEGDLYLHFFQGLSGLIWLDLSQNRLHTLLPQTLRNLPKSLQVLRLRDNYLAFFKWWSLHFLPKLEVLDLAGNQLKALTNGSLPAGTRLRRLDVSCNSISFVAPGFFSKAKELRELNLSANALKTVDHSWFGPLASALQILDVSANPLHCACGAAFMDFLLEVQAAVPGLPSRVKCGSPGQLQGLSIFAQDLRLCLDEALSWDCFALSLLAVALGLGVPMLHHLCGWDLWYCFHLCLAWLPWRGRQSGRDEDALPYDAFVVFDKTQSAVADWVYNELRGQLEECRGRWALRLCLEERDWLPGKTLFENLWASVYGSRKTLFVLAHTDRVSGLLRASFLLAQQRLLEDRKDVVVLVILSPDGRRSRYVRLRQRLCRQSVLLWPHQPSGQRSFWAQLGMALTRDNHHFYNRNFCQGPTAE
Description: Inhibition of CpG ODN 2006-mediated NF-κB-luciferase activation in hTLR9-LUC-293 cells. Particulars: for Percent 2006 Activity: equimolar 0.156 μM CpG ODN 2006 and inhibitory ODN; for inhibitory for TLR9: general statement 'found according to the present invention', conditions not given.

Setting [1] is: Table 2 (5′ CC replaced by other dinucleotides).

As to “CCTTGTTGGG (DNA, backbone and methylation of C not given here) [ODN 223]”, in the series with human PBMC, the “inhibition of IFN-α production in human PBMC, in words” value is on record as “inhibited”.
Take NNNNNNNNNNNNNGT [ODN 467]: in the series with human PBMC, the “inhibition of IFN-α production in human PBMC, in words” value is reported as “not”.
For “TCCGGGCGGGGAAGT (DNA, backbone and methylation of C not given here) [ODN 156]”, in the series with human TLR8, the “inhibitory for TLR8” value was “inhibitory”. The “Percent 2006 Activity” value with human TLR9 (Table 3 (nucleotides flanking 5′ CC, truncations)) stood at 10%. Also, the “inhibitory for TLR9” value with human TLR9 is reported as “inhibitory”.
On to “TCCTAGCGGGGAAGT (DNA, backbone and methylation of C not given here) [SEQ ID NO:10]”, for which the “inhibitory for TLR8” value with human TLR8 is recorded as “inhibitory”. Besides, in the series with human TLR9, the “inhibitory for TLR9” value is listed as “inhibitory”.
On to “TCCTAGCGGGGGCGTCCTAT (chemistry not given here) [SEQ ID NO:12]”, for which, in the series with human TLR8, the “inhibitory for TLR8” value is reported as “not for TLR8”. In addition, the “inhibitory for TLR9” value in the series with human TLR9 is given as “inhibitory”.
Regarding “TCCTGGAGGGGAAGT (DNA, backbone and methylation of C not given here) [ODN 2114]”, in the series with human TLR8, the “inhibitory for TLR8” value is reported as “inhibitory”. For the same sequence, in the series with human TLR9, the “inhibitory for TLR9” value was “inhibitory”.
On to “TCCTGTGTGTGTGTGTGTCGGGGAAGT (DNA, backbone and methylation of C not given here) [ODN 497]”, for which the “inhibitory for TLR8” value with human TLR8 was “inhibitory”. For the same sequence, in the series with human TLR9 (Table 1 (length b / Spacer 18 variants)), the “Percent 2006 Activity” value was determined as 28%. Also, the “inhibitory for TLR9” value with human TLR9 is reported as “inhibitory”.
Take “TGATGGCGGGGAAGT (listed as DNA, chemistry not given here) [ODN 444]”: in the series with human TLR8, the “inhibitory for TLR8” value is “inhibitory”. The “Percent 2006 Activity” value in the series with human TLR9 (setting [1]) is given as 96%.
For “TGCTGGCGGGGAAGT (listed as DNA, chemistry not given here) [ODN 443]”, in that order: “inhibitory” and 91%.
“TGTTGGCGGGGAAGT (listed as DNA, chemistry not given here) [ODN 445]”: the “inhibitory for TLR8” value in the series with human TLR8 is listed as “inhibitory”. For the same sequence, the “Percent 2006 Activity” value with human TLR9 (setting [1]) turned out to be 97%.
